The results in this text go back to PMC8957989, “Binding Affinity Characterization of Four Antennae-Enriched Odorant-Binding Proteins From Harmonia axyridis (Coleoptera: Coccinellidae)” (Frontiers in Physiology, 2022).

Molecules are shown by their SMILES. Like-named read-outs stand apart in the source and are kept apart here.

The target in assay [1] is T1, HaxyOBP15 (Harmonia axyridis, UniProt A0A8K1AM29). Put plainly: Fluorescent probe binding (titration of protein with probe). To be noted: probe titrated to 2-16 μM, Tris-HCl 50 mM pH 7.4; read-out: dissociation constant of probe with HaxyOBP15. The method, then: A Cary Eclipse Fluorescence Spectrophotometer (Agilent Technologies, United States) was used to determine the results of the binding assay. N-phenyl-1-naphthylamine (1-NPN) for HaxyOBP15 and 4,4′-Dianilino-1,1′-binaphthyl-5,5′-disulfonic acid dipotassium salt (bis-ANS) for HaxyOBP3, 5, and 12 were chosen as the fluorescent probe. The excitation wavelength was 337 nm of 1-NPN and 295 nm of bis-ANS, and the emission spectrum was recorded between 350 and 500 nm for 1-NPN and between 300 and 550 nm for bis-ANS. The recombinant proteins prepared in Tris–HCl (50 mM, pH 7.4) was titrated with aliquots of 1 mM 1-NPN or bis-ANS to final concentrations ranging from 2 to 16 μM to measure the binding affinity. To further measure the binding affinity of ligands to HaxyOBPs, proteins and fluorescent probe at 2 μM were titrated with aliquots of 1 mM odorants. The binding constant (K1-NPN/bis-ANS) of 1-NPN or bis-ANS to HaxyOBPs was calculated by GraphPad Prism 5 software (GraphPad Software Inc.) with the equation Ki = [IC50]/(1 + [1-NPN]/K1-NPN) or [IC50]/(1 + [bis-ANS]/Kbis-ANS), where [1-NPN]/[bis-ANS] is the free concentration of 1-NPN/bis-ANS, and K1-NPN/Kbis-ANS is the dissociation constant of the protein/1-NPN (bis-ANS).
T1 sequence (A0A8K1AM29 entry or part of it): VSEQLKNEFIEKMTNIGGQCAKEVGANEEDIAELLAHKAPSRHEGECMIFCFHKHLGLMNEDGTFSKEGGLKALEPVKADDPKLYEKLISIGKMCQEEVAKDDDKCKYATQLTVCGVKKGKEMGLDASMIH

For assay [2], the target named is T1, HaxyOBP15. Nature of the assay: Competitive fluorescence binding assay (1-NPN probe). To be noted: for Ki: Ki = [IC50]/(1 + [1-NPN]/K1-NPN). How it is done: (§1) The positive plasmid was then transformed into BL21 (DE3) cells for the expression of recombinant proteins, and proteins induced with 0.5 mmol/L isopropyl β-D-1-thiogalactopyranoside (IPTG) for 4 h at 37°C (HaxyOBP3) or 16 h at 15°C (HaxyOBP5, 12, and 15). […] Inclusion bodies were denatured by 8 M urea.
(§2) Protein purification was performed with His-Tag Purification Resin column (Genscript Biology Company, Nanjing, Jiangsu, China) and purified by gradient imidazole buffer (20, 50, 100, 250, and 500 mmol·L^−1). The purity and size of proteins were detected by SDS-PAGE, and concentrations of proteins were measured with bicinchoninic acid (BCA) Protein Assay Kit (ThermoFisher Scientific-Life Technologies, Carlsbad, CA, United States).
(§3) A Cary Eclipse Fluorescence Spectrophotometer (Agilent Technologies, United States) was used to determine the results of the binding assay. N-phenyl-1-naphthylamine (1-NPN) for HaxyOBP15 and 4,4′-Dianilino-1,1′-binaphthyl-5,5′-disulfonic acid dipotassium salt (bis-ANS) for HaxyOBP3, 5, and 12 were chosen as the fluorescent probe.

Another assay has as its target HaxyOBP5 (Harmonia axyridis, UniProt A0A8J9RUK3). Put plainly: Competitive fluorescence binding assay (bis-ANS probe). To be noted: for Ki: Ki = [IC50]/(1 + [bis-ANS]/Kbis-ANS). How it is done: as §1, §2, §3
For a further assay, the target named is HaxyOBP12 (Harmonia axyridis, UniProt A0A8K1AMY0). The description is as above. To be noted: recombinant protein and bis-ANS at 2 μM, Tris-HCl 50 mM pH 7.4; for Ki: Ki = [IC50]/(1 + [bis-ANS]/Kbis-ANS). How it is done: as §1, §2, §3
Sequence of HaxyOBP12 (A0A8K1AMY0 entry or part of it): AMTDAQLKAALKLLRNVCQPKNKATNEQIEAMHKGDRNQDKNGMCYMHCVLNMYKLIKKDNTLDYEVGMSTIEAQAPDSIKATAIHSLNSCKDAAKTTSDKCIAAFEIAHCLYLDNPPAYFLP
For the next assay, the target named is HaxyOBP3 (Harmonia axyridis, UniProt A0A8K1AM44). Described as above. To be noted: recombinant protein and bis-ANS at 2 μM, Tris-HCl 50 mM pH 7.4; for Ki: Ki = [IC50]/(1 + [bis-ANS]/Kbis-ANS). The method, then:
as §1, §2, §3

Where [3] appears, read: recombinant protein and 1-NPN at 2 μM, Tris-HCl 50 mM pH 7.4.
Setting [4] is: recombinant protein and 1-NPN at 2 μM, Tris-HCl 50 mM pH 7.4, read-out: HaxyOBP15 IC50.
Setting [5] is: HaxyOBP5 Ki, recombinant protein and bis-ANS at 2 μM, Tris-HCl 50 mM pH 7.4.

Sequence of HaxyOBP3 (A0A8K1AM44 entry or part of it): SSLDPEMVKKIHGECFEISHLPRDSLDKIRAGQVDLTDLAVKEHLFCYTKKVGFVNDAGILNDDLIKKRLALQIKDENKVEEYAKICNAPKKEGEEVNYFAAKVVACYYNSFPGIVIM
Sequence of HaxyOBP5 (A0A8J9RUK3 entry or part of it): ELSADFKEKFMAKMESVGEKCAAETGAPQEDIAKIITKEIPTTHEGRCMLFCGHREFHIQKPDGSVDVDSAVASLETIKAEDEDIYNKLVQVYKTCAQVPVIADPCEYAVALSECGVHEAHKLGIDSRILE

With `c1ccc(Nc2cccc3ccccc23)cc1` [1-NPN, N-phenyl-1-naphthylamine], at HaxyOBP15 [1], the Kd stood at 5.07 ± 0.31 µM.
Regarding `C=CC(=C)CC/C=C(\C)CCC=C(C)C` [(E)-β-Farnesene], at HaxyOBP15 [2] (setting [3]), the Ki was 4.33 ± 0.4 µM. In addition, on HaxyOBP15 [2] (setting [4]), the 50% inhibitory concentration (IC50) is 5.81 ± 0.46 µM.
For the compound `CC(=O)CCC1=C(C)CCCC1(C)C` [Dihydro-β-ionone], on HaxyOBP15 [2] (setting [3]), the Ki came to 24 ± 2.65 µM. The IC50 at HaxyOBP15 [2] (setting [4]) came to 30.9 ± 3.01 µM.
With `CC(=O)OC/C=C(\C)CCC=C(C)C` [Geranyl acetate], the Ki on HaxyOBP15 [2] (setting [3]) was 23.4 ± 3.04 µM. Besides, on HaxyOBP15 [2] (setting [4]), the IC50 was 30.3 ± 3.58 µM.
On HaxyOBP15 [2], `C=CC(C)(CCC=C(C)C)OC(C)=O` (stereo not drawn) [Linalyl acetate] came in with an IC50 of 40 ± 2.91 µM.
Regarding `COC(=O)c1ccccc1O` [Methyl salicylate], the Ki was found to be 11.7 µM on HaxyOBP5 (setting [5]); 18.1 ± 1.33 µM on HaxyOBP5 (recombinant protein and bis-ANS at 2 μM, Tris-HCl 50 mM pH 7.4, read-out: HaxyOBP5 Ki). Also, the IC50 at HaxyOBP5 (recombinant protein and bis-ANS at 2 μM, Tris-HCl 50 mM pH 7.4, read-out: HaxyOBP5 IC50) was found to be 26.4 ± 1.96 µM.
For the compound `CCCCCCCCC=O` [Nonyl aldehyde], on HaxyOBP15 [2] (setting [3]), the Ki was determined as 29.6 ± 1.86 µM. The IC50 at HaxyOBP15 [2] (setting [4]) stood at 38.5 ± 2.03 µM.
Consider `COc1ccc(C=O)cc1` [p-Anisaldehyde], for which the values for the IC50 on HaxyOBP12, on HaxyOBP3 and on HaxyOBP5 were 25.5 ± 1.99 µM, 34.1 ± 1.06 µM and 19.9 ± 0.7 µM, respectively. The Ki turned out to be 16.1 ± 1.21 µM on HaxyOBP12, 24.4 ± 0.37 µM at HaxyOBP3 and 13.4 ± 0.67 µM on HaxyOBP5 (setting [5]).
`CC(=O)/C=C/C1C(C)=CCCC1(C)C` (stereo not drawn) [α-Ionone]: the IC50 at HaxyOBP15 [2] turned out to be 12 ± 0.56 µM.
Regarding `CC(=O)/C=C/C1=C(C)CCCC1(C)C` [β-Ionone], the IC50 at HaxyOBP12 was 24 ± 1.56 µM; on HaxyOBP3, 25.9 ± 2.85 µM; on HaxyOBP5, 17.8 ± 1.52 µM; at HaxyOBP15 [2], 6.99 ± 0.21 µM. Further, the Ki at HaxyOBP12 came to 15.2 ± 1.06 µM; on HaxyOBP3 it was 18.8 ± 2.14 µM; at HaxyOBP5 (setting [5]), 11.7 ± 0.86 µM.
